Results published in patent publication US20150064221A1, “COMPOUNDS HAVING IMMUNOMUDULATOR ACTIVITY” (priority 2012, published 2015).

How the values were obtained:
COX-2 = COX-2 (Homo sapiens, UniProt P35354); assay: COX-2 activity; format: biochemical
Protocol: (§1) The highest plasma concentrations generally occurred in 1-2 hours. […] The highest level of inhibition was ˜35% for 2C19 at a 30 μM concentration. […] Lastly, VGX-1027 is stable in human liver S9 fractions (with phase 1 and 2 cofactors) with t1/2>90 minutes, which indicates a low likelihood of metabolism in the liver.

[1] = Twenty-eight day toxicology study in dogs; format: in vivo; details: 28 days, highest dose 100 mg/kg/day
Protocol: Twenty-eight day toxicology studies were performed in both mice and dogs with increasing concentration to achieve toxicity. The following are the results of those studies.

PBMCs = assay: Transcriptional profile analysis (microarray) of LPS-stimulated PBMCs; format: cell-based, human; design: mean/difference of means: scale not given here; details: for mean/difference of means: VGX-treated vs LPS stimulated group
Protocol: Transcriptional profile analysis: PBMCs from three individual healthy donors, obtained from the University of Pennsylvania School of Medicine, Immunology Clinical Core. Cells (5×10̂6) were treated with either LPS (5 μg/ml), LPS (5 μg/ml)+VGX-1027 (10 uM) or PBS for 48 hours and subsequently, RNA was extracted using the RNeasy kit (Qiagen) following manufacturer's instructions.
RNA was hybridized to the Human Gene 1.0 ST array (Affymetrix). Microarray data were analyzed using the web-based utility Expression Profiler (http://www.ebi.ac.uk/expressionprofiler/). Data normalization was achieved by performing logarithmic transformation of all intensities followed by gene mean-centering. Multiple array probes were collapsed by averaging the intensities. Principal component analysis (PCA) was conducted on all genes to assign the general variability in the data to a reduced set of variables. Gene expression differences were assessed by means of Student's t test, and genes with a p<0.01 were considered differentially expressed. Selected genes were subjected to K-means clustering, using Euclidean distance as correlation measurement, and gene ontology (GO) analysis was performed using the Database for Annotation, Visualization and Integrated Discovery (DAVID) tool. Hierarchical clustering of selected genes was performed using Euclidean distance measurements as similarity comparison.

[2] = test system: In vitro-derived human DCs; assay: LPS-induced cytokine production of dendritic cells; format: cell-based; details: LPS 5 μg/ml, 10 mM, 72 hours
Protocol: In vitro-derived human DCs were treated with LPS (5 μg/ml), with or without VGX-1027 (10 mM) for 72 hours. Concentrations of the cytokines in the media were measured via ELISA.

Metabolite monitoring = format: in vitro ADME; details: isoxazole ring disruption, single oxidation, single glucuronidation; any species
Protocol: as §1

COX-2, sequence (P35354 18-604): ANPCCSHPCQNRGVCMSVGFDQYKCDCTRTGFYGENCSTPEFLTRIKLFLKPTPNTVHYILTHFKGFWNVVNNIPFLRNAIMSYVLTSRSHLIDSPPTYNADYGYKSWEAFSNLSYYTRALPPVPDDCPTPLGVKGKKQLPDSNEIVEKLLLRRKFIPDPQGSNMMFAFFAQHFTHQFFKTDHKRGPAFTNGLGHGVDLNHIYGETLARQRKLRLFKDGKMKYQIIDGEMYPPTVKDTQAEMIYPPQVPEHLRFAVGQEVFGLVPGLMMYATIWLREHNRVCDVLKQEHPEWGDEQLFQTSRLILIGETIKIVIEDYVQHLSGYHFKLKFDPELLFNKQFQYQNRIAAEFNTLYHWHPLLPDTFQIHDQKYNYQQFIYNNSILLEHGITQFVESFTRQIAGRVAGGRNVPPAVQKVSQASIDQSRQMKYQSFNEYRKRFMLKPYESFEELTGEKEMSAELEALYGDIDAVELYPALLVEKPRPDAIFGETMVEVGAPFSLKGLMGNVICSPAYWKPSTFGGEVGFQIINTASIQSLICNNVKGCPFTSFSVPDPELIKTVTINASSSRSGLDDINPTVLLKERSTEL

For `O=C(O)CC1CC(c2ccccc2)=NO1` (stereo not shown) [VGX-1027, 3-phenyl-4,5-dihydro-5-isoxazoleacetic acid], the “inhibition of COX-2 activity” value (COX-2) was “no significant inhibition”, the early deaths [1] was 3 and the “genes in cluster strongly downregulated upon treatment” value (PBMCs; K-means clustering) was 525. For the same molecule, the “genes modulated relative to LPS” value (PBMCs; LPS 5 μg/ml + 10 uM, 48 hours) was 895, the mean/difference of means (PBMCs; gene 7912155, most down-regulated genes) was 0.111 and the mean/difference of means (PBMCs; gene 7923965, most down-regulated genes) was 0.439. The mean/difference of means (PBMCs; gene 7945084, most down-regulated genes) was 0.165, the mean/difference of means (PBMCs; gene 7997245, most up-regulated genes) was −0.0599 and the mean/difference of means (PBMCs; gene 8007069, most down-regulated genes) was 0.074. For the same molecule, the mean/difference of means (PBMCs; gene 8017100, most down-regulated genes) was 0.108, the mean/difference of means (PBMCs; gene 8028281, most down-regulated genes) was 0.0791 and the mean/difference of means (PBMCs; gene 8043441, most up-regulated genes) was −0.406. The mean/difference of means (PBMCs; gene 8077169, most down-regulated genes) was 0.153, the mean/difference of means (PBMCs; gene 8094946, most down-regulated genes) was 0.07 and the mean/difference of means (PBMCs; gene 8102775, most down-regulated genes) was 0.101. For the same molecule, the mean/difference of means (PBMCs; gene 8104068, most down-regulated genes) was 0.118, the mean/difference of means (PBMCs; gene 8134024, most down-regulated genes) was 0.0796 and the mean/difference of means (PBMCs; gene 8135943, most down-regulated genes) was 0.406. It also gave a mean/difference of means (PBMCs; gene 8136446, most up-regulated genes) of −0.146, a mean/difference of means (PBMCs; gene 8140035, most down-regulated genes) of 0.388 and a mean/difference of means (PBMCs; gene 8150101, most up-regulated genes) of −0.237. For the same molecule, the mean/difference of means (PBMCs; gene 8153835, most down-regulated genes) was 0.0829, the mean/difference of means (PBMCs; gene 8160555, most down-regulated genes) was 0.171 and the mean/difference of means (PBMCs; gene ADAM19, most up-regulated genes) was −0.176. It also gave a mean/difference of means (PBMCs; gene AIM2, most up-regulated genes) of −0.221, a mean/difference of means (PBMCs; gene ALKBH5, most down-regulated genes) of 0.0698 and a mean/difference of means (PBMCs; gene APOBEC3G, most up-regulated genes) of −0.239. It also gave a mean/difference of means (PBMCs; gene ATXN10, most up-regulated genes) of −0.131, a mean/difference of means (PBMCs; gene BLNK, most up-regulated genes) of −0.398 and a mean/difference of means (PBMCs; gene BOLA3, most up-regulated genes) of −0.118. It also gave a mean/difference of means (PBMCs; gene C1orf2, most down-regulated genes) of 0.106, a mean/difference of means (PBMCs; gene C11orf53, most down-regulated genes) of 0.184 and a mean/difference of means (PBMCs; gene C20orf173, most down-regulated genes) of 0.14. It also gave a mean/difference of means (PBMCs; gene CABYR, most down-regulated genes) of 0.135, a mean/difference of means (PBMCs; gene CCKBR, most down-regulated genes) of 0.0588 and a mean/difference of means (PBMCs; gene CCL8, most up-regulated genes) of −1.08. It also gave a mean/difference of means (PBMCs; gene CD22, most up-regulated genes) of −0.453, a mean/difference of means (PBMCs; gene CD38, most up-regulated genes) of −0.468 and a mean/difference of means (PBMCs; gene CHML, most up-regulated genes) of −0.24. It also gave a mean/difference of means (PBMCs; gene CIZ1, most down-regulated genes) of 0.0416, a mean/difference of means (PBMCs; gene CLIC5, most up-regulated genes) of −0.175 and a mean/difference of means (PBMCs; gene CLU, most up-regulated genes) of −0.218. For the same molecule, the mean/difference of means (PBMCs; gene CPA3, most up-regulated genes) was −0.669, the mean/difference of means (PBMCs; gene CYTH1, most down-regulated genes) was 0.0452 and the mean/difference of means (PBMCs; gene DNAH1, most up-regulated genes) was −0.134. For the same molecule, the mean/difference of means (PBMCs; gene EDN2, most down-regulated genes) was 0.0391, the mean/difference of means (PBMCs; gene EGR4, most down-regulated genes) was 0.129 and the mean/difference of means (PBMCs; gene EOMES, most up-regulated genes) was −0.0887. For the same molecule, the mean/difference of means (PBMCs; gene ETNK2, most down-regulated genes) was 0.278, the mean/difference of means (PBMCs; gene FAM108C1, most down-regulated genes) was 0.0544 and the mean/difference of means (PBMCs; gene FAS, most up-regulated genes) was −0.12. The mean/difference of means (PBMCs; gene FCRL1, most up-regulated genes) was −0.301, the mean/difference of means (PBMCs; gene FNBP1L, most down-regulated genes) was 0.203 and the mean/difference of means (PBMCs; gene FUK, most down-regulated genes) was 0.0866. The mean/difference of means (PBMCs; gene GATAD1, most down-regulated genes) was 0.0258, the mean/difference of means (PBMCs; gene GEN1, most up-regulated genes) was −0.368 and the mean/difference of means (PBMCs; gene GGTLC2, most down-regulated genes) was 0.179. It also gave a mean/difference of means (PBMCs; gene HAGH, most down-regulated genes) of 0.0712, a mean/difference of means (PBMCs; gene HISPPD2A, most down-regulated genes) of 0.0217 and a mean/difference of means (PBMCs; gene HSPA12B, most down-regulated genes) of 0.0281. The mean/difference of means (PBMCs; gene KARS, most up-regulated genes) was −0.126, the mean/difference of means (PBMCs; gene KCTD10, most up-regulated genes) was −0.0613 and the mean/difference of means (PBMCs; gene KLF3, most down-regulated genes) was 0.115. The mean/difference of means (PBMCs; gene KLF10, most up-regulated genes) was −0.11, the mean/difference of means (PBMCs; gene KLHDC4, most up-regulated genes) was −0.0727 and the mean/difference of means (PBMCs; gene LARS2, most up-regulated genes) was −0.176. It also gave a mean/difference of means (PBMCs; gene LCP2, most up-regulated genes) of −0.0536, a mean/difference of means (PBMCs; gene LRRC8D, most down-regulated genes) of 0.139 and a mean/difference of means (PBMCs; gene LYRM4, most up-regulated genes) of −0.294. The mean/difference of means (PBMCs; gene MAGOH, most up-regulated genes) was −0.1, the mean/difference of means (PBMCs; gene MOV10L1, most down-regulated genes) was 0.0753 and the mean/difference of means (PBMCs; gene MRPL15, most up-regulated genes) was −0.147. The mean/difference of means (PBMCs; gene MRPS35, most up-regulated genes) was −0.164, the mean/difference of means (PBMCs; gene NDUFA4, most up-regulated genes) was −0.0638 and the mean/difference of means (PBMCs; gene NLN, most up-regulated genes) was −0.217. The mean/difference of means (PBMCs; gene OAS3, most up-regulated genes) was −0.134, the mean/difference of means (PBMCs; gene OFCC1, most down-regulated genes) was 0.0379 and the mean/difference of means (PBMCs; gene PAH, most down-regulated genes) was 0.0906. It also gave a mean/difference of means (PBMCs; gene PAK1IP1, most up-regulated genes) of −0.271, a mean/difference of means (PBMCs; gene PGDS, most up-regulated genes) of −0.708 and a mean/difference of means (PBMCs; gene RGS1, most up-regulated genes) of −0.294. For the same molecule, the mean/difference of means (PBMCs; gene RPE, most up-regulated genes) was −0.116, the mean/difference of means (PBMCs; gene SERPINI1, most down-regulated genes) was 0.187 and the mean/difference of means (PBMCs; gene SH3PXD2A, most down-regulated genes) was 0.0515. The mean/difference of means (PBMCs; gene SLC38A2, most down-regulated genes) was 0.0979, the mean/difference of means (PBMCs; gene SNORA24, most up-regulated genes) was −0.212 and the mean/difference of means (PBMCs; gene SNRNP70, most down-regulated genes) was 0.0617. It also gave a mean/difference of means (PBMCs; gene SNX6, most up-regulated genes) of −0.0607, a mean/difference of means (PBMCs; gene SPAG7, most up-regulated genes) of −0.149 and a mean/difference of means (PBMCs; gene SRFBP1, most up-regulated genes) of −0.124. For the same molecule, the mean/difference of means (PBMCs; gene TCL1A, most up-regulated genes) was −0.442, the mean/difference of means (PBMCs; gene TNFRSF17, most up-regulated genes) was −0.295 and the mean/difference of means (PBMCs; gene TRABD, most down-regulated genes) was 0.0439. The mean/difference of means (PBMCs; gene TSN, most up-regulated genes) was −0.105, the mean/difference of means (PBMCs; gene TUSC3, most down-regulated genes) was 0.0955 and the mean/difference of means (PBMCs; gene TXNRD1, most down-regulated genes) was 0.117. For the same molecule, the mean/difference of means (PBMCs; gene UAP1L1, most down-regulated genes) was 0.0398, the mean/difference of means (PBMCs; gene VIPR1, most down-regulated genes) was 0.123 and the mean/difference of means (PBMCs; gene WARS2, most up-regulated genes) was −0.246. The mean/difference of means (PBMCs; gene WDR70, most up-regulated genes) was −0.0908, the mean/difference of means (PBMCs; gene YPEL2, most down-regulated genes) was 0.183 and the mean/difference of means (PBMCs; gene ZNF596, most up-regulated genes) was −0.432. For the same molecule, the mean/difference of means (PBMCs; gene ZNF746, most down-regulated genes) was 0.0386, the mean/difference of means (PBMCs; gene hCG_2024410, most up-regulated genes) was −0.102 and the IL-6 production [2] was “dramatically repressed”. The IL-18 production [2] was “dramatically repressed”, the IL-23 production [2] was “dramatically repressed” and the TNF-α production [2] was “dramatically repressed”. The “metabolite peaks for the 3 monitored masses” value (Metabolite monitoring) was “no metabolite peaks were observed”.
